From US20080200499A1, “Selective Insecticides and/or Acaricides Based on Substituted Cyclic Dicarbonyl Compounds and Safeners” (priority 2004, published 2008)

Legend:
Type in all cases: in vivo
[1] = tested on: grain aphids (Metopolophium dirhodum); test: Metopolophium dirhodum test (spray application); settings: barley plants
Text: (§1) The expected activity of a given combination of two active compounds can be calculated according to S. R. Colby, Weeds 15 (1967), 20-22 as follows:
(§2) if • X is the kill rate when employing active compound A at an application rate of m g/ha or in a concentration of m ppm, • Y is the kill rate when employing active compound B at an application rate of n g/ha or in a concentration of n ppm and • E is the kill rate when using the active compounds A and B at application rates of m and n g/ha or in a concentration of m and n ppm, then
(§3) If the actual activity exceeds the calculated value, the activity of the combination is superadditive, i.e. a synergistic effect is present. In this case, the actually observed kill rate must exceed the value calculated using the above formula for the expected kill rate (E).
(§4) To prepare a suitable application solution, 1 part by weight of formulation is mixed with the appropriate amount of water and the adjuvant and the concentrate is diluted with water to the desired concentration.
Barley plants (Hordeum vulgare) which are heavily infested by a grain aphids (Metopolophium dirhodum) are sprayed to runoff point with the desired concentration of the application solution.
(§5) After the desired period of time, the kill in % is determined. 100% means that all aphids have been killed; 0% means that none of the aphids have been killed. The determined kill rates are entered in Colby's formula.

[2] = tested on: cotton aphid (Aphis gossypii); test: Aphis gossypii test (spray application); settings: cotton plants
Text: as §1, §2, §3, §4
Cotton plants (Gossypium herbaceum) which are heavily infested by the cotton aphid (Aphis gossypii) are sprayed to runoff point with the desired concentration of the application solution.
as §5

[3] = tested on: green peach-aphid (Myzus persicae); test: Myzus persicae test (spray application); settings: bell pepper plants
Text: as §1, §2, §3, §4
Bell pepper plants (Capsicum sativum) which are heavily infested by the green peach-aphid (Myzus persicae) are sprayed to runoff point with the desired concentration of the application solution.
as §5

[4] = tested on: Winter barley; test: Greenhouse trial with safener after seed dressing (seed trays), winter barley; settings: evaluation after 14 d
Method: (§6) In an agate mortar, the amount of safener and the amount of active compound required to prepare a 20 WS formulation are dissolved in acetone, and the appropriate amount of formulation without active compounds (which is actually used to prepare Gaucho 70 WS) is added. The mixture is allowed to dry until only a small amount of residual moisture can be detected. Using a spatula, the substance is carefully detached from the side of the mortar, and the substance is comminuted in the mortar until it has dried. An amount of the laboratory formulation thus prepared which is appropriate for the amount of seed to be dressed is filled into beakers of a size big enough so that, during dressing, they are at most one third filled with seed. A sufficient amount of water (depending on the properties of the seed surface) is then added. The seed is then filled into these beakers containing formulation and water and dressed on a test tube shaker with the aid of a spatula or glass rod. Once the formulation is distributed on the seed as uniformly as possible, the seed is allowed to dry in a fume hood.
(§7) 3 l trays made of plastic (20×20×5 cm) are filled with sandy loam. Using a punch, the soil is firmed such that the deposition depth required for the crop in question is achieved. 20 seeds/seed tray are placed at regular intervals with the aid of a pair of tweezers impressed into the soil using the abovementioned punch. The test containers are placed in a greenhouse and, using the punch, the surface is once again firmed gently. In addition to the test substances, an untreated control is tested, too. Per variant, there are at least 2 trays. The trays are watered and covered with a film until the plants have emerged. After emergence, the trays are watered 2 times a day. Evaluation is carried out by counting the plants that have emerged and by assessing damage, (in %) over an interval of 5-14 days after sowing in comparison to the untreated control.

[5] = tested on: Maize; test: Greenhouse trial with safener after seed dressing (seed trays), maize; settings: evaluation after 14 d
Method: In an agate mortar, the amount of safener and the amount of active compound required to prepare a 20 WS formulation are dissolved in acetone, and the appropriate amount of formulation without active compounds (which is actually used to prepare Gaucho 70 WS) is added. The mixture is allowed to dry until only a small amount of residual moisture can be detected. Using a spatula, the substance is carefully detached from the side of the mortar, and the substance is comminuted in the mortar until it has dried. An amount of the laboratory formulation thus prepared which is appropriate for the amount of seed to be dressed is filled into beakers of a size big enough so that, during dressing, they are at most one third filled with seed. A sufficient amount of water (depending on the properties of the seed surface) is then added. The seed is then filled into these beakers containing formulation and water and dressed on a test tube shaker with the aid of a spatula or glass rod. Once the formulation is distributed on the seed as uniformly as possible, the seed is allowed to dry in a fume hood. 3 l trays made of plastic (20×20×5 cm) are filled with sandy loam. Using a punch, the soil is firmed such that the deposition depth required for the crop in question is achieved. 20 seeds/seed tray are placed at regular intervals with the aid of a pair of tweezers impressed into the soil using the abovementioned punch. The test containers are placed in a greenhouse and, using the punch, the surface is once again firmed gently. In addition to the test substances, an untreated control is tested, too. Per variant, there are at least 2 trays. The trays are watered and covered with a film until the plants have emerged. After emergence, the trays are watered 2 times a day. Evaluation is carried out by counting the plants that have emerged and by assessing damage, (in %) over an interval of 5-14 days after sowing in comparison to the untreated control.

[6] = tested on: Summer barley; test: Greenhouse trial with safener after seed dressing (seed trays), summer barley; settings: evaluation after 14 d
Method: as §6, §7

[7] = tested on: Winter barley; test: Safener test after spraying, variant a: plant damage
Method: (§8) To produce a suitable preparation of active compound, 1 part by weight of active compound is mixed with the stated amounts of solvent and emulsifier, and the concentrate is diluted with tap water to the desired concentration. The desired amount of safener (in the case of mefenpyr-diethyl as WP 20) is mixed into the water used for dilution. Furthermore, 2 g of ai/l of rapeseed oil methyl ester 500 EW are added. Leaves of winter barley at the 2-leaf stage which are infested by the bird cherry-oat aphid (Rhopalosiphum padi) are treated with the desired active compound and safener concentrations using a spray boom, the water application rate being 300 l/ha. Per variant, the test is carried out at least twice. Evaluation is carried out after 7 d and/or 14 d by assessing the plant damage in %, where both the treated plant and new growth and the kill of the grain aphids in % compared to the untreated control are evaluated. 100% damage means that the plant has died, and 0% means no damage. 100% effect on the grain aphids means that all aphids have been killed; 0% means that none of the aphids have been killed.

[8] = tested on: bird cherry-oat aphid (Rhopalosiphum padi); test: Safener test after spraying, variant b: kill of aphids on winter barley; settings: spray
Method: as §8
(§9) In variant b), the active compound is applied as an SC formulation in the desired concentrations as in variant a) in a mixture with mefenpyr-diethyl WP 20 and 2 g of ai/l rapeseed oil methyl ester 500 EW. Practice and evaluation is carried out as stated in variant a).

[9] = tested on: bird cherry-oat aphid (Rhopalosiphum padi); test: Safener test after spraying, variant a: kill of aphids on winter barley; settings: spray
Method: as §8

[10] = tested on: Winter barley; test: Safener test after spraying, variant b: plant damage
Method: as §8, §9

[11] = variant a, spray, 200 g of ai/ha
[12] = variant b, spray, 200 g of ai/ha
[13] = variant b, spray, 200 g of ai/ha, 14 d

## CCCCCC(C)OC(=O)COc1ccc(Cl)c2cccnc12 (centres unmarked) [Cloquintocet-mexyl a.i., 1-methylhexyl 5-chloroquinolin-8-oxyacetate]
[1]; 100 ppm
  Kill rate in % after 7 d: 0%

## C=CCN(CC=C)C(=O)C(Cl)Cl [Dichlormid a.i., 2,2-dichloro-N,N-di-2-propenylacetamide]
[2]; 100 ppm
  Kill rate in % after 7 d: 0%
[3]; 100 ppm
  Kill rate in % after 7 d: 0%

## Cc1cc(Cl)cc(C)c1C1(Cl)C(=O)NC2(CCOCC2)C1=O (centres unmarked) [Example I-1-1]
[4]; 2 g of ai/kg of seed
  % damage: 100%
  plants that have emerged in %: 0%
[2]; 20 ppm
  Kill rate in % after 7 d: 20%
[5]; 2 g of ai/kg of seed
  % damage: 95%
  plants that have emerged in %: 71%
[6]; 2 g of ai/kg of seed
  % damage: 100%
  plants that have emerged in %: 0%

## COC1CCC2(CC1)NC(=O)C(Cl)(c1c(C)cc(Br)cc1C)C2=O (centres unmarked) [Example I-1-2]
[7]; winter barley, in vivo
  Damage (%) 7 d: 40%
  Damage to new growth (%) 7 d: 70%
  Damage (%) 14 d: 50%
  Damage to new growth (%) 14 d: 80%
[8]; 8 g of ai/ha
  Kill (%) 7 d: 73%
  Kill (%) 14 d: 33%
[8]; 40 g of ai/ha
  Kill (%) 7 d: 100%
  Kill (%) 14 d: 70%
[9]; 40 g of ai/ha
  Kill (%) 7 d: 100%
  Kill (%) 14 d: 78%
[2]; 20 ppm
  Kill rate in % after 3 d: 0%
[1]; 20 ppm
  Kill rate in % after 7 d: 45%
[10]; winter barley, in vivo
  Damage (%) 7 d: 40%
  Damage to new growth (%) 7 d: 100%
[10]; winter barley, in vivo, 14 d
  Damage (%) 14 d: 60%
[3]; 20 ppm
  Kill rate in % after 7 d: 25%

## Clc1cc(Cl)nc(-c2ccccc2)n1 [Fenclorim a.i., 4,6-dichloro-2-phenylpyrimidine]
[2]; 100 ppm
  Kill rate in % after 3 d: 0%
  Kill rate in % after 7 d: 0%
[3]; 100 ppm
  Kill rate in % after 7 d: 0%

## CC1(C)OC(c2ccco2)CN1C(=O)C(Cl)Cl (centres unmarked) [Furilazole a.i., 3-dichloroacetyl-5-(2-furanyl)-2,2-dimethyloxazolidine]
[2]; 100 ppm
  Kill rate in % after 3 d: 0%
[1]; 100 ppm
  Kill rate in % after 7 d: 0%
[3]; 100 ppm
  Kill rate in % after 7 d: 0%

## CCOC(=O)C1=NOC(c2ccccc2)(c2ccccc2)C1 [Isoxadifen-ethyl, ethyl 4,5-dihydro-5,5-diphenyl-3-isoxazolecarboxylate]
[5]; 1 g of ai/kg of seed
  % damage: 0%
  plants that have emerged in %: 96%

## CCOC(=O)C1=NN(c2ccc(Cl)cc2Cl)C(C)(C(=O)OCC)C1 (centres unmarked) [Mefenpyr-diethyl, diethyl 1-(2,4-dichlorophenyl)-4,5-dihydro-5-methyl-1H-pyrazole-3,5-dicarboxylate]
[7]; [11]
  Damage (%) 7 d: 0%
  Damage to new growth (%) 7 d: 0%
  Damage (%) 14 d: 0%
  Damage to new growth (%) 14 d: 0%
[8]; 200 g of ai/ha
  Kill (%) 7 d: 0%
  Kill (%) 14 d: 0%
[4]; 1 g of ai/kg of seed
  % damage: 0%
  plants that have emerged in %: 83%
[9]; 200 g of ai/ha
  Kill (%) 7 d: 0%
  Kill (%) 14 d: 0%
[10]; [12]
  Damage (%) 7 d: 0%
  Damage to new growth (%) 7 d: 0%
[10]; [13]
  Damage (%) 14 d: 0%
  Damage to new growth (%) 14 d: 0%
[6]; 1 g of ai/kg of seed
  % damage: 0%
  plants that have emerged in %: 75%
